Reference: paper PMC2500149 (International Journal of Medical Sciences, 2008)

Assays:
[1] = statement of the introduction; cited from earlier work
[2] = Solubility of the peptides in water and TFE/water; format: physicochemical
[3] = system: cells; details: free peptide without transporter; stated, no experiment described; cited from earlier work
[4] = Far UV circular dichroism, TFE polarity titration; format: physicochemical; details: aqueous solution, 10% TFE, 100 µg/ml

Cc1ccc(NC(=O)NCCSCc2ccc(CN(C)C)o2)cc1Cl [CAP-1]
water solubility [1]: limited water solubility

C=C(C)[C@@H]1CC[C@]2(C(=O)O)CC[C@]3(C)[C@H](CC[C@@H]4[C@@]5(C)CC[C@H](OC(=O)CC(C)(C)C(=O)O)C(C)(C)[C@@H]5CC[C@]43C)[C@@H]12 [PA-457]
water solubility [1]: limited water solubility

ITFEDLLDYYGP [CAI(Pep1)]
water solubility [1]: limited water solubility

ITFEDLLDYYGPKC [CAI-peptide]
water solubility (in words) [2]: water insoluble
direct cell permeation / transfer across biomembranes [3]: cannot permeate cells directly
aggregation (inferred from poor water solubility and β-structure in CD) [4]: oligomeric aggregates are formed
